# pIC50: −log10 of the molar value.
# Target: T1, Tyrosine-protein phosphatase non-receptor type 1 [1-298] (Homo sapiens, UniProt P18031)
# T1 construct: 1-298
# T1 sequence (P18031 whole entry): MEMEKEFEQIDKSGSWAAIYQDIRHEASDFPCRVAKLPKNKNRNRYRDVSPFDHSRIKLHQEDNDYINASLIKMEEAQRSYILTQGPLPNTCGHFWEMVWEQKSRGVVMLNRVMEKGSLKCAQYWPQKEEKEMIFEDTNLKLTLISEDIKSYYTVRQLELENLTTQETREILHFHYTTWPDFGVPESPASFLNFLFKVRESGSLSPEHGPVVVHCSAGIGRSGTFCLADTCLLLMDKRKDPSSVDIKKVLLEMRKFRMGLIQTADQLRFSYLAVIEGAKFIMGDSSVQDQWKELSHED
# Experiment: Phosphatase Inhibition Assay
Structure (SMILES),pIC50,"pIC50 (pH 7, 22 °C)"
"O=C1CC(c2ccc(C[C@H](NS(=O)(=O)c3ccccc3)c3nc4ccccc4[nH]3)cc2)S(=O)(=O)N1 (stereo partly drawn) [N-[(1S)-1-(1H-1,3-benzodiazol-2-yl)-2-[4-(1,1,3-trioxo-1,2-thiazolidin-5-yl)phenyl]ethyl]benzenesulfonamide]",6.92,–
"CN1CCOc2cc(S(=O)(=O)N[C@@H](Cc3ccc([C@@H]4CC(=O)NS4(=O)=O)cc3)c3nc4ccccc4[nH]3)ccc21 [N-[(1S)-1-(1H-benzoimidazol-2-yl)-2-[4-[(5S)-1,1,3-trioxo-1,2-thiazolidin-5-yl]phenyl]ethyl]-7-methyl-10-oxa-7-azabicyclo[4.4.0]deca-2,4,11-triene-3-sulfonamide]",–,7.23
"O=C1C[C@@H](c2ccc(C[C@H](NC(=O)C(F)(F)F)c3nc4ccc(C(F)(F)F)cc4[nH]3)cc2)S(=O)(=O)N1 [N-{(1S)-2-[4-(1,1-dioxido-3-oxoisothiazolidin-5-yl)phenyl]-1-[5-(trifluoromethyl)-1H-benzimidazol-2-yl]ethyl}-2,2,2-trifluoroacetamide]",–,6.96
O=C(Cc1ccc(C(F)(F)P(=O)(O)O)cc1)N[C@@H](Cc1ccccc1)C(=O)NCCc1ccc(C(F)(F)P(=O)(O)O)cc1 [[(4-{2-[(2S)-2-(1-{4-[difluoro(phosphono)methyl]phenyl}acetamido)-3-phenylpropanamido]ethyl}phenyl)difluoromethyl]phosphonic acid],–,7.34
